The supplement of paper PMC10307832

Key:
Assay in all cases: relative viability (nuclei count vs DMSO), 5 days (fraction); higher = more cells survive
EHT 1864 + Decitabine = compound: C1COCCN1CC2=CC(=O)C(=CO2)OCCCCCSC3=C4C=CC(=CC4=NC=C3)C(F)(F)F [EHT 1864] + Nc1ncn([C@H]2C[C@H](O)[C@@H](CO)O2)c(=O)n1 [Decitabine] (partner 2 µM)
Procedure, shortened: (§1)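 For relative viability, nuclei counts in treated wells were divided by those in vehicle wells. Lung cancer cell lines had been pin-tool dosed in 1536-well plates the day after seeding and cultured for 5 days, then fixed and stained in one step (final 0.05% Triton X-100, 1% formaldehyde, 1 ug/ml Hoechst) and imaged at 4×. Doses were one drug alone or a fixed anchor-drug dose plus five library-drug doses (not always all listed) in √10 steps, and values are duplicate-plate medians.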

EHT 1864 + Foretinib = compound: C1COCCN1CC2=CC(=O)C(=CO2)OCCCCCSC3=C4C=CC(=CC4=NC=C3)C(F)(F)F [EHT 1864] + COc1cc2c(Oc3ccc(NC(=O)C4(C(=O)Nc5ccc(F)cc5)CC4)cc3F)ccnc2cc1OCCCN1CCOCC1 [Foretinib] (partner 0.25 µM)
Procedure, shortened: as §1

EHT 1864 + Luminespib = compound: C1COCCN1CC2=CC(=O)C(=CO2)OCCCCCSC3=C4C=CC(=CC4=NC=C3)C(F)(F)F [EHT 1864] + CCNC(=O)c1noc(-c2cc(C(C)C)c(O)cc2O)c1-c1ccc(CN2CCOCC2)cc1 [Luminespib] (partner 0.01 µM)
Procedure, shortened: as §1

EHT 1864 + Dasatinib = compound: C1COCCN1CC2=CC(=O)C(=CO2)OCCCCCSC3=C4C=CC(=CC4=NC=C3)C(F)(F)F [EHT 1864] + Cc1nc(Nc2ncc(C(=O)Nc3c(C)cccc3Cl)s2)cc(N2CCN(CCO)CC2)n1 [Dasatinib] (partner 0.075 µM)
Procedure, shortened: as §1

Cell Line | relative viability (EHT 1864 + Decitabine; first compound 0.04 µM) | relative viability (EHT 1864 + Decitabine; first compound 0.1265 µM) | relative viability (EHT 1864 + Decitabine; first compound 0.4 µM) | relative viability (EHT 1864 + Decitabine; first compound 1.265 µM) | relative viability (EHT 1864 + Decitabine; first compound 4 µM) | relative viability (EHT 1864 + Foretinib; first compound 0.04 µM) | relative viability (EHT 1864 + Foretinib; first compound 0.1265 µM) | relative viability (EHT 1864 + Foretinib; first compound 0.4 µM) | relative viability (EHT 1864 + Foretinib; first compound 1.265 µM) | relative viability (EHT 1864 + Foretinib; first compound 4 µM) | relative viability (EHT 1864 + Luminespib; first compound 0.04 µM) | relative viability (EHT 1864 + Luminespib; first compound 0.1265 µM) | relative viability (EHT 1864 + Luminespib; first compound 0.4 µM) | relative viability (EHT 1864 + Luminespib; first compound 1.265 µM) | relative viability (EHT 1864 + Luminespib; first compound 4 µM) | relative viability (EHT 1864 + Dasatinib; first compound 0.04 µM) | relative viability (EHT 1864 + Dasatinib; first compound 0.1265 µM) | relative viability (EHT 1864 + Dasatinib; first compound 0.4 µM) | relative viability (EHT 1864 + Dasatinib; first compound 1.265 µM) | relative viability (EHT 1864 + Dasatinib; first compound 4 µM)
NCI-H1755 | 0.803 | 0.685 | 0.702 | 0.707 | 0.755 | 0.914 | 0.872 | 0.876 | 0.844 | 0.803 | 0.618 | 0.3 | 0.601 | 0.42 | 0.401 | 0.424 | 0.333 | 0.425 | 0.369 | 0.399
NCI-H1793 | 0.47 | 0.466 | 0.506 | 0.56 | 0.614 | 0.604 |  | 0.667 |  | 0.789 | 0.143 |  | 0.141 |  | 0.178 | 0.307 |  | 0.304 |  | 0.419
NCI-H1915 | 0.259 |  | 0.265 | 0.26 | 0.265 | 1.07 |  | 1 | 1.07 | 1.08 | 0.8 |  | 0.733 | 0.577 | 0.791 | 0.309 |  | 0.296 | 0.338 | 0.282
NCI-H1944 | 0.43 |  | 0.429 | 0.433 | 0.417 | 0.893 |  | 0.882 | 0.89 | 0.701 | 0.827 |  | 0.74 | 0.712 | 0.802 | 0.238 |  | 0.208 | 0.228 | 0.21
NCI-H1975 | 0.41 | 0.411 | 0.404 | 0.384 | 0.398 | 0.933 | 0.98 | 0.883 |  | 0.876 | 0.143 | 0.284 | 0.201 | 0.155 | 0.199 | 0.361 | 0.292 | 0.426 |  | 0.331
NCI-H1993 | 0.552 |  | 0.598 | 0.645 | 0.57 | 0.741 |  | 0.748 | 0.75 | 0.744 | 0.737 |  | 0.813 | 0.865 | 0.795 | 0.841 |  | 0.498 | 0.613 | 0.639
NCI-H2009 | 0.357 | 0.356 | 0.354 | 0.382 | 0.412 | 1.17 | 1.12 | 1.22 | 1.2 | 1.07 | 1 | 0.926 | 0.979 | 0.913 | 0.789 | 0.259 | 0.258 | 0.323 | 0.241 | 0.251
NCI-H2023 | 0.213 | 0.212 | 0.223 | 0.259 | 0.176 | 0.787 | 0.855 | 0.957 | 0.876 | 0.778 | 0.585 | 0.723 | 0.704 | 0.634 | 0.68 | 0.568 | 0.628 | 0.508 | 0.517 | 0.577
NCI-H2085 | 0.604 | 0.551 | 0.588 | 0.656 | 0.555 | 1.13 |  | 0.9 | 0.92 | 0.89 | 0.432 |  | 0.541 | 0.415 | 0.442 | 0.22 | 0.239 | 0.233 | 0.253 | 0.305
